Results on 13 compounds are retold here after patent US8586755B2, “Substituted nicotinamides as KCNQ2/3 modulators” (Grünenthal GmbH, priority 2009, dated 2013).

For this assay, the target named is T1, KCNQ2/3 channels (Homo sapiens, UniProt O43525+O43526).
T1 construct: expressed in transfected cells
Kind of assay: Fluorescence assay using a voltage sensitive dye (fluorimetry). Type of assay: cell-based. Conditions: CHO-K1 cells expressing KCNQ2/3 channels; for EC50: agonistic activity; for Emax / Fluorimetry % efficacy (retigabine 50 μM = 100%): retigabine 50 μM = 100%; for Emax: read-out: Fluorimetry % efficacy (retigabine 50 μM = 100%). The method in brief:
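CHO-K1 cells expressing human KCNQ2/3, loaded 45 min with red membrane-potential dye in ES buffer pH 7.4 (1 mM KCl), compound 30 min at room temperature. Fluorescence (525/560 nm) read before (F1) and at peak after KCl to 92 mM final (F2); agonism from F2/F1 change, EC50 fitted.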

Broadly, the EC50 is the concentration at which the effect is half-maximal. Turning to `O=C(NCc1ccc2c(c1)OCO2)c1cccnc1SCCCc1ccc(F)cc1` [compound 121, N-(1,3-Benzodioxol-5-yl-methyl)-2-[3-(4-fluorophenyl)-propylsulfanyl]-pyridine-3-carboxylic acid amide], the 50% effective concentration (EC50) came to 0.256 µM and the Emax turned out to be 99%.
For `O=C(NCc1cccc(-c2ccccc2)c1)c1cccnc1SCCCc1ccc(F)cc1` [compound 122, 2-[3-(4-Fluorophenyl)-propylsulfanyl]-N-[(3-phenyl-phenyl)-methyl]-pyridine-3-carboxylic acid amide] the same measures were 0.153 µM and 94%.
On to `CC1CCCC(CNC(=O)c2cccnc2SCCCc2ccc(F)cc2)C1` (stereo not drawn) [compound 123, 2-[3-(4-Fluorophenyl)-propylsulfanyl]-N-[(3-methyl-cyclohexyl)-methyl]-pyridine-3-carboxylic acid amide], for which the EC50 worked out at 0.155 µM and the Emax was 168%.
For the compound `CC(C)(C)C(=O)CNC(=O)c1cccnc1SCCCc1ccc(F)cc1` [compound 125, N-(3,3-Dimethyl-2-oxo-butyl)-2-[3-(4-fluorophenyl)-propylsulfanyl]-pyridine-3-carboxylic acid amide], the EC50 was 1.4 µM and the Emax was 99%.
`CC(C)(C)C(O)CNC(=O)c1cccnc1SCCCc1ccc(F)cc1` (stereo not drawn) [compound 126]: the EC50 came out at 0.627 µM and the “Fluorimetry % efficacy (retigabine 50 μM = 100%)” value is recorded as 177%.
Regarding `O=C(NCc1cccnc1)c1cccnc1SCCCc1ccc(F)cc1` [compound 127, 2-[3-(4-Fluorophenyl)-propylsulfanyl]-N-(pyridin-3-yl-methyl)-pyridine-3-carboxylic acid amide], the response was half-maximal at 1.86 µM (EC50) and the Emax was found to be 147%.
In the case of `O=C(NCc1ccncc1)c1cccnc1SCCCc1ccc(F)cc1` [compound 128, 2-[3-(4-Fluorophenyl)-propylsulfanyl]-N-(pyridin-4-yl-methyl)-pyridine-3-carboxylic acid amide], the EC50 came to 1.85 µM and the Emax worked out at 122%.
On to `COC(=O)c1cccc(CNC(=O)c2cccnc2SCCCc2ccc(F)cc2)c1` [compound 129, 3-[[[2-[3-(4-Fluorophenyl)-propylsulfanyl]-pyridine-3-carbonyl]amino]-methyl]-benzoic acid methyl ester], for which a half-maximal effect (EC50) was put at 0.325 µM and the Emax is 122%.
Regarding `COc1ccccc1CCCNC(=O)c1cccnc1SCCCc1ccc(F)cc1` [compound 130, 2-[3-(4-Fluorophenyl)-propylsulfanyl]-N-[3-(2-methoxyphenyl)-propyl]-pyridine-3-carboxylic acid amide], the EC50 was found to be 0.465 µM and the Emax stood at 164%.
As for `O=C(O)c1cccc(CNC(=O)c2cccnc2SCCCc2ccc(F)cc2)c1` [compound 131], the “Fluorimetry % efficacy (retigabine 50 μM = 100%)” value is given as 25%.
With `CC(CCc1cccc(C(F)(F)F)c1)Sc1ncccc1C(=O)NCc1ccc(F)cc1` (stereo not drawn) [compound 132, N-[(4-Fluorophenyl)-methyl]-2-[[1-methyl-3-[3-(trifluoromethyl)phenyl]-propyl]sulfanyl]-pyridine-3-carboxylic acid amide], a half-maximal effect (EC50) was put at 0.082 µM and the Emax was determined as 120%.
In the case of `O=C(NCCCn1cccn1)c1cccnc1SCCCc1ccc(F)cc1` [compound 135, 2-[3-(4-Fluorophenyl)-propylsulfanyl]-N-[3-(1H-pyrazol-1-yl)-propyl]-pyridine-3-carboxylic acid amide], the EC50 amounted to 3.14 µM and the Emax is 154%.
On to `O=C(NCc1ccc2ccccc2c1)c1cccnc1SCCCc1ccc(F)cc1` [compound 136, 2-[3-(4-Fluorophenyl)-propylsulfanyl]-N-(naphthalen-2-yl-methyl)-pyridine-3-carboxylic acid amide], for which the Emax worked out at 28%.
